From ChEMBL document CHEMBL1201862, “PubChem BioAssay data set” (2004) come the findings set out here.

Assay [1] has as its target DNA dC->dU-editing enzyme APOBEC-3G (Homo sapiens, UniProt Q9HC16). The assay can be described thus: APOBEC3G deaminase inhibitors, SAR follow-up, biochemical, fluorescence, single-stranded DNA substrate (AID 602136). The format is functional. Conditions: read-out: IC50_Mean.
The target in assay [2] is DNA dC->dU-editing enzyme APOBEC-3A (Homo sapiens, UniProt P31941). The assay can be described thus: SAR analysis of small molecule inhibitors of APOBEC3A DNA Deaminase via a fluorescence-based single-stranded DNA deaminase assay. The following applies: read-out: IC50_Mean. In kind it is functional.
Sequence of DNA dC->dU-editing enzyme APOBEC-3A (P31941 whole entry): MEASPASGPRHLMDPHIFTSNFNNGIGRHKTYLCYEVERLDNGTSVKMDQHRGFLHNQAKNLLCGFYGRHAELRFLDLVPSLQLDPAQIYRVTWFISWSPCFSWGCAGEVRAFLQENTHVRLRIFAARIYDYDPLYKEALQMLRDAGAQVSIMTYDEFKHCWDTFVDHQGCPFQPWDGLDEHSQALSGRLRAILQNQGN
In a further assay the test system is Saccharomyces cerevisiae. The assay can be described thus: NALP1 inhibitor project selectivity study, Caspase-1/ASC signal blockade IC50 in S. cerevisiae (AID 488863). The format is functional, organism-based.
Assay [3] addresses T1, NACHT, LRR and PYD domains-containing protein 1 (Homo sapiens, UniProt Q9C000).
T1 sequence (Q9C000 whole entry): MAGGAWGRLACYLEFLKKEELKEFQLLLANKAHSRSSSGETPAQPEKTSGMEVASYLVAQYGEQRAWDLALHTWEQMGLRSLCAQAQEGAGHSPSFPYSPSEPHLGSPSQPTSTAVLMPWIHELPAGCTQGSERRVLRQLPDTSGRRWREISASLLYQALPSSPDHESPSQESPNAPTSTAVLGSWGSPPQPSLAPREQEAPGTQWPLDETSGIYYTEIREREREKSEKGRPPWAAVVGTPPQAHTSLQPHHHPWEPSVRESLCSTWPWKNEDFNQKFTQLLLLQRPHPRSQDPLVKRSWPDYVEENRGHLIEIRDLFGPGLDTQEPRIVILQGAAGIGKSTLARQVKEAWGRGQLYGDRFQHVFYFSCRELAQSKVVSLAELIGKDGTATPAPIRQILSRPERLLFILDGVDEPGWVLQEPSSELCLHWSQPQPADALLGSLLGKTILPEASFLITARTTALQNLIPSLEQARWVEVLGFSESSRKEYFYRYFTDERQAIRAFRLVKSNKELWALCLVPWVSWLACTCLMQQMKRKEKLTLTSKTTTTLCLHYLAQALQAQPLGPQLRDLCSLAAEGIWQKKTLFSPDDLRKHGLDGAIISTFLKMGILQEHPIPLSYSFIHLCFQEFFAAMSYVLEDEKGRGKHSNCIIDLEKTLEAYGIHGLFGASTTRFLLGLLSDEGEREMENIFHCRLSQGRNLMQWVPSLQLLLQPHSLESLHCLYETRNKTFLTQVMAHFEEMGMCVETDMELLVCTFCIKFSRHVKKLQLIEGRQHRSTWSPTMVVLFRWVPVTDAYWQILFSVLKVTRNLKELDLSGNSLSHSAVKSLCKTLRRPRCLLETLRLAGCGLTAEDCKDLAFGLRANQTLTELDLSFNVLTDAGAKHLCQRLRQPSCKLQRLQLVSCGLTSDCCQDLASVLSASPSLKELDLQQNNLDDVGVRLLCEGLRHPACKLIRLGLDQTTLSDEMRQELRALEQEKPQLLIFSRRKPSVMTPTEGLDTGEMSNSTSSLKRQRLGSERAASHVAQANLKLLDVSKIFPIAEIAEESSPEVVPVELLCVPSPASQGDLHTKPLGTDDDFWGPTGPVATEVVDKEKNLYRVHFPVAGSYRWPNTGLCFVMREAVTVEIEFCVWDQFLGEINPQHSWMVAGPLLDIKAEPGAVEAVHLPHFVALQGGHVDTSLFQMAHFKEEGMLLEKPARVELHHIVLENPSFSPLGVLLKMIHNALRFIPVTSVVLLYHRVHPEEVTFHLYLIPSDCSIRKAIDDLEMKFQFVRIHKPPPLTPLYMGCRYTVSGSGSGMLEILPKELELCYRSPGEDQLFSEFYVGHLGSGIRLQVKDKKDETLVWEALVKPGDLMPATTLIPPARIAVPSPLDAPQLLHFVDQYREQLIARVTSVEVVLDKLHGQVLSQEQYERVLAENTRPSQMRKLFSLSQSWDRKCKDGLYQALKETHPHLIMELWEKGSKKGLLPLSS
The assay can be described thus: NALP1 inhibitors in yeast, dose response, luminescent (AID 488860). In kind it is functional.

The target of assay [4] is T2, Replicative DNA helicase DnaB (Mycobacterium tuberculosis, UniProt P9WMR3).
T2 sequence (P9WMR3 whole entry): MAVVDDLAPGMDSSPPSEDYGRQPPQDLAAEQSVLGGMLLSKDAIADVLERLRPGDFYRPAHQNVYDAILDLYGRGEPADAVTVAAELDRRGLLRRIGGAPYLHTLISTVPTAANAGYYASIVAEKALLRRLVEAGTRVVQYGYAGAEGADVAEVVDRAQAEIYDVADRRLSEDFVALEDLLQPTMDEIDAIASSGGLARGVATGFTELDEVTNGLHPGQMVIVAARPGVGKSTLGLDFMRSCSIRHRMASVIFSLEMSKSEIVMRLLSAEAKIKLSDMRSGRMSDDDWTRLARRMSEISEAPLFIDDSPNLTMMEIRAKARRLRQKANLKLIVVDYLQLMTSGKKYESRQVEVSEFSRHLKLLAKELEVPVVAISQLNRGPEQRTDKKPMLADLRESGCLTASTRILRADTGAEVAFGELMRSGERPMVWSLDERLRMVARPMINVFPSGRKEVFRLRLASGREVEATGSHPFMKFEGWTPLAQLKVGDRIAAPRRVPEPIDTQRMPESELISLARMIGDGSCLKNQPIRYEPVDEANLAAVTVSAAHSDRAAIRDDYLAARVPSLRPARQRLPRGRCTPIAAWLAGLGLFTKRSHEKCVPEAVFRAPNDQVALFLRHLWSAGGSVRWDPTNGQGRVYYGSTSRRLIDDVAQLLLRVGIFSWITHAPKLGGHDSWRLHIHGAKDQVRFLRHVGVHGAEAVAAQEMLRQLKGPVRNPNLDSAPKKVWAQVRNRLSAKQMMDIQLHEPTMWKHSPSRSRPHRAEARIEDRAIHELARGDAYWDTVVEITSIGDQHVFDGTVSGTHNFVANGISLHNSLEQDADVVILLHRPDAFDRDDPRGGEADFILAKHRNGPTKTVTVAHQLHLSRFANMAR
The assay can be described thus: DnaB intein splicing inhibitors, dose response, biochemical, cell-free fluorescence (AID 449749). In kind it is functional.

For another assay, the target named is T3, Protein RecA (Mycobacterium tuberculosis, UniProt P9WHJ3).
T3 sequence (P9WHJ3 whole entry): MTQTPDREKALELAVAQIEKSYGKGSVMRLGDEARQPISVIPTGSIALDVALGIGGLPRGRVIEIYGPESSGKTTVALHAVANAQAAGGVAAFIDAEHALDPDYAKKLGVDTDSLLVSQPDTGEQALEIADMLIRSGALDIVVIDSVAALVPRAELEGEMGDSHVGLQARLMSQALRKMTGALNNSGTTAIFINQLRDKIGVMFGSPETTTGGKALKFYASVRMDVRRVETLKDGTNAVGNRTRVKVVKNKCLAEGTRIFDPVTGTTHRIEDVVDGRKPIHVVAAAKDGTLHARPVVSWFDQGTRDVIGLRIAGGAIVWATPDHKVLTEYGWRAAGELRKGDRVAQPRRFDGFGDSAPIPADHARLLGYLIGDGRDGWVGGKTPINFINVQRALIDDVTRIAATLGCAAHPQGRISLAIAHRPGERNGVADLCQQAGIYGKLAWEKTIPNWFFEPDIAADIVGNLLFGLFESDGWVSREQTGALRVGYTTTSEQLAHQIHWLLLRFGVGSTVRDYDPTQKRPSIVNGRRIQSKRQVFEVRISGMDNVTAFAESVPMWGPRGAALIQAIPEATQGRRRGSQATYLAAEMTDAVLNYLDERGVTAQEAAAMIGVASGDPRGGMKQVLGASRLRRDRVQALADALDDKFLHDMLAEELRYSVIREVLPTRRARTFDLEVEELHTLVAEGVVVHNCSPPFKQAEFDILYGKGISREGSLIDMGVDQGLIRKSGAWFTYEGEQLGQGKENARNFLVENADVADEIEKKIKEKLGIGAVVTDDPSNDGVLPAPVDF
The assay can be described thus: Fluorescence Cell-Free Homogeneous Dose Retest to Identify Inhibitors of RecA-Intein Splicing Activity. [Related pubchem assays (depositor defined):AID2097, AID2223, AID489010, AID492950]. The format is functional.

Assay [5] can be described thus: viability loss in Mcl1-dependent HMC-1-8 cells, dose response, selectivity assay for A1 inhibitor project, cell-based, luminescence, dry powder (AID 504415). The following applies: Homo sapiens. The format is functional.
Assay [6] has as its target Cell division cycle 7-related protein kinase (Homo sapiens, UniProt O00311). In kind it is functional.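 Note: value obtained from a kinome-wide kinase panel.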
For assay [7], the target named is Cyclin-dependent kinase 19 (Homo sapiens, UniProt Q9BWU1). The assay can be described thus: Navigating the Kinome. Panel member name: CDC2L6. The format is functional.
Sequence of Cyclin-dependent kinase 19 (Q9BWU1 whole entry): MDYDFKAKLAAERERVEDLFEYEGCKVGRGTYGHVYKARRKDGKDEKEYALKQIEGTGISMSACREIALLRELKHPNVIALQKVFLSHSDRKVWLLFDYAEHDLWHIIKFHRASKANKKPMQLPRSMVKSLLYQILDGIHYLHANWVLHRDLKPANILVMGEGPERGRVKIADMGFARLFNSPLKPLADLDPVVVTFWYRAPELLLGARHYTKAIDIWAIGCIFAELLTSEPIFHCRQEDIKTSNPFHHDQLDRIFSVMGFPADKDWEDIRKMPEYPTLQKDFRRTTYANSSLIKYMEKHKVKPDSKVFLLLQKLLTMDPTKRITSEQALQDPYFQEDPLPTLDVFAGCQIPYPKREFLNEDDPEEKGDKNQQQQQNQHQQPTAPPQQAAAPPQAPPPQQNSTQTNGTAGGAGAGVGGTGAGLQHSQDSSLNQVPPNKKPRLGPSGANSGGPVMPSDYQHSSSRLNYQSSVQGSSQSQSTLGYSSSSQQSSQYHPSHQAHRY
Assay [8] has as its target Protein disulfide-isomerase (Homo sapiens, UniProt P07237). The assay can be described thus: PDI inhibitors, insulin aggregation turbidity, dose response, biochemical, absorbance, cherry-picked samples (AID 602350). The format is functional.
Assay [9] has as its target Sphingosine 1-phosphate receptor 2 (Homo sapiens, UniProt O95136). The assay can be described thus: Late-stage fluorescence-based dose-response cell-based counterscreen assay to identify agonists of the Sphingosine 1-Phosphate Receptor 3 (S1P3): Sphingosine 1-Phosphate Receptor 2 (S1P2) agonist assay. In kind it is functional.
Assay [10] has as its target T4, Sphingosine 1-phosphate receptor 4 (Homo sapiens, UniProt O95977).
T4 sequence (O95977 whole entry): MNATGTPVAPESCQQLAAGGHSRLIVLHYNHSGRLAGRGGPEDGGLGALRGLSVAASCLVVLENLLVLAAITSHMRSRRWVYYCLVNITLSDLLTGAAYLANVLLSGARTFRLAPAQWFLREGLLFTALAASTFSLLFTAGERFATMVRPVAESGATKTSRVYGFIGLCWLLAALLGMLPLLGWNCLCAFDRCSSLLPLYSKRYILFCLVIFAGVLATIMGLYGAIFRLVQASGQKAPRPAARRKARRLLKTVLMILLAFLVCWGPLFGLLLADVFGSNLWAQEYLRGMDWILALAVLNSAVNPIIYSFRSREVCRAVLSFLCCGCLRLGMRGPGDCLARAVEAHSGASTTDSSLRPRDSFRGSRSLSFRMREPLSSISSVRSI
The assay can be described thus: Late-stage fluorescence-based dose-response cell-based counterscreen assay to identify agonists of the Sphingosine 1-Phosphate Receptor 3 (S1P3): Sphingosine 1-Phosphate Receptor 4 (S1P4) agonist assay. The format is functional. A general note: The purpose of a counterscreen is to sort out artefacts and off-target activity.

SMILES strings stand for the structures. The source made the active and inactive calls.

Sequence of Sphingosine 1-phosphate receptor 2 (O95136 whole entry): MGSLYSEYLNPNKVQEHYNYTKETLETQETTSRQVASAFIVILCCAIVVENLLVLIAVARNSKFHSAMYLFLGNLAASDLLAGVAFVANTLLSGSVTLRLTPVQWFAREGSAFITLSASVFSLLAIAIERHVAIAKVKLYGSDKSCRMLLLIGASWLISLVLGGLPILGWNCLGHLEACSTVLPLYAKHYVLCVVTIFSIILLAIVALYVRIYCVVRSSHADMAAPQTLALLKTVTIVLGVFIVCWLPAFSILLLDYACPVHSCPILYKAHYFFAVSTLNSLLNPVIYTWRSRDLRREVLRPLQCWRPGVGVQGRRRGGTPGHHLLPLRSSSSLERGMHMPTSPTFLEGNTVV
Sequence of Cell division cycle 7-related protein kinase (O00311 whole entry): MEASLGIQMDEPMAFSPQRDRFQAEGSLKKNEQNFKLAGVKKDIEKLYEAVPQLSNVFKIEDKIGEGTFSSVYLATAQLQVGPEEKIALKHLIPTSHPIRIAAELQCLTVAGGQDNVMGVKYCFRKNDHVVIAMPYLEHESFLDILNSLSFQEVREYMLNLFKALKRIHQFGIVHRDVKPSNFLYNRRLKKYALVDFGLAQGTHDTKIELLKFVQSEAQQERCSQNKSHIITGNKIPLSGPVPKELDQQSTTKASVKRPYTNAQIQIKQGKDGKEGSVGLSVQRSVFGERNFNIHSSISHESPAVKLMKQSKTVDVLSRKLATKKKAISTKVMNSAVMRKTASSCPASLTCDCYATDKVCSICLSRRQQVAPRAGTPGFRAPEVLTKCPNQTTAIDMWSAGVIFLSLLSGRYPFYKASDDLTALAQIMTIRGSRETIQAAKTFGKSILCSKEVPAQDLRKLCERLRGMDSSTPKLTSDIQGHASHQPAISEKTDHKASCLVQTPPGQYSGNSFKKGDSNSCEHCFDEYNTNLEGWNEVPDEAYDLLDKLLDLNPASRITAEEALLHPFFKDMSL
Sequence of Protein disulfide-isomerase (P07237 whole entry): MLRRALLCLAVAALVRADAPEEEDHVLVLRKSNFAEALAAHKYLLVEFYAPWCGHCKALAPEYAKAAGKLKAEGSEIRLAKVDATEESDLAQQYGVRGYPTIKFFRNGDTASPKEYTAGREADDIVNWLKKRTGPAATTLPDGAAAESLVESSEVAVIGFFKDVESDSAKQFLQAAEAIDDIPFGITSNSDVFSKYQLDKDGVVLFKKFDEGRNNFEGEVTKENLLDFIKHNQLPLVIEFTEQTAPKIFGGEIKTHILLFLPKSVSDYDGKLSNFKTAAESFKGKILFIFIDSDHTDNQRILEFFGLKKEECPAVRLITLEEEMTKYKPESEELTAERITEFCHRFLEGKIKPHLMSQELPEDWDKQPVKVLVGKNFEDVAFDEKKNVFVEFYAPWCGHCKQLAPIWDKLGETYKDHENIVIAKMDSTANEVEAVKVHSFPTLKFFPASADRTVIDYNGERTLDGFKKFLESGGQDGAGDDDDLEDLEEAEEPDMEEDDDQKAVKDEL
Sequence of DNA dC->dU-editing enzyme APOBEC-3G (Q9HC16 whole entry): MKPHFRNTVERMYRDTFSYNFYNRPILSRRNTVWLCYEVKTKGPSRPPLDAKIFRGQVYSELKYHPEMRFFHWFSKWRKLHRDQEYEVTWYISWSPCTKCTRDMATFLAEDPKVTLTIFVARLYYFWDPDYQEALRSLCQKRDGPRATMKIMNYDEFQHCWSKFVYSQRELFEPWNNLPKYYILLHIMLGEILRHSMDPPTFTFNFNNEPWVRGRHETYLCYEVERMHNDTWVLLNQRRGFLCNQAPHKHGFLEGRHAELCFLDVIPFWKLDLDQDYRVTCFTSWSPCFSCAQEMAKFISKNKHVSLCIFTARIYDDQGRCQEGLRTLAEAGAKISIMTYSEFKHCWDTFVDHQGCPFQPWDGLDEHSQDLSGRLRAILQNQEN

Consider `Nc1nc2sc3c(c2c2nnc(SCc4ccc(Cl)cc4)n12)CCCC3`, for which the IC50 in assay [1] and in assay [2] was > 99 µM (inactive) throughout.
As usually defined, the AC50 is the midpoint of the concentration-response curve, whichever way the signal moves. The EC50 is the midpoint of the concentration-response curve. As for `Cn1c(=O)c([N+](=O)[O-])c(-n2cnc3ccccc32)c2ccccc21`, the IC50 in the assay with Saccharomyces cerevisiae is 72.3 µM (active); in assay [3] it was > 100 µM (inactive). For the same compound, the concentration at half-maximal activity (AC50) in [4] was 8.12 µM (active); in [5], 69.6 µM (active). In addition, the EC50 at Protein RecA was 7.26 µM (active).
What is called Ki is a dissociation constant, usually derived from enzyme kinetics or from competition with a known ligand. Turning to `O=c1nc(-c2ccccc2)cc(-c2ccncc2)[nH]1`, the inhibitory constant (Ki) in [6] was 0.158 µM (active); in [7] it was > 100 µM (inactive).
Consider `Cc1ccc2nc(N3CCN(Cc4nnnn4C4CCCC4)CC3)c(C#N)cc2c1`, for which the AC50 in assay [8] is 4.05 µM (active).
Take `O=C(c1noc2ccccc12)N(C1CCCCC1)C1CCCCC1`: the EC50 in assay [9] and in assay [10] was > 50 µM (inactive) each time.
